For the assay, the target named is Growth factor receptor-bound protein 2 (Homo sapiens, UniProt P62993). The experiment in a line: Binding affinity to recombinant Grb2-SH3 domain by fluorescence spectroscopy.

Active and inactive are the calls of the source. The rule behind the calls is not given here. Numbered stars: 1 amine (or outer) side, 2 acyl side, 3 side chain; on linkers, the order of the positions; unused ones are H or OH. Square brackets hold non-standard residues; d marks the D form. Peptide text beside a SMILES is read from it. X4 = O=C([C@@H]1C(CS(=O)(=O)c2ccccc2)CCN1[*:1])[*:2]; X3 = C[S+]([O-])CC1CCN([*:1])[C@@H]1C(=O)[*:2]; X2 = O=C(O)CC1CCN([*:1])[C@@H]1C(=O)[*:2]; X6 = CC(C)C1CCN([*:1])[C@@H]1C(=O)[*:2]; X5 = O=C([C@@H]1C(CO)CCN1[*:1])[*:2]; X1 = CC1CCN([*:1])[C@@H]1C(=O)[*:2]

Our source for the Kd and Activity values is ChEMBL document CHEMBL1146300, “High affinity Grb2-SH3 domain ligand incorporating Cbeta-substituted prolines in a Sos-derived decapeptide” (Bioorg Med Chem, 2007).

Take `CC(=O)N[C@H](C(=O)N1CCC[C@H]1C(=O)N1CCC[C@H]1C(=O)N1CCC[C@H]1C(=O)N1CCC(C)[C@H]1C(=O)N1CCC[C@H]1C(=O)N1CCC[C@H]1C(=O)N[C@@H](CCCNC(=N)N)C(=O)N[C@@H](CCCNC(=N)N)C(=O)N[C@@H](CCCNC(=N)N)C(=O)N[C@H](C(=O)N1CCC[C@H]1C(=O)N1CCC[C@H]1C(=O)N1CCC[C@H]1C(=O)N1CCC(C)[C@H]1C(=O)N1CCC[C@H]1C(=O)N1CCC[C@H]1C(=O)N[C@@H](CCCNC(=N)N)C(=O)N[C@@H](CCCNC(=N)N)C(=O)N[C@@H](CCCNC(=N)N)C(=O)N[C@@H](CCCCN)C(N)=O)C(C)C)C(C)C` (stereo partly drawn) (Ac-VPPP[X1]PPRRRVPPP[X1]PPRRRK-NH2): the Kd (usually the equilibrium constant for the complex coming apart) was less than 0.52 µM.

In the case of `CC(C)[C@H](N)C(=O)N1CCC[C@H]1C(=O)N1CCC[C@H]1C(=O)N1CCC[C@H]1C(=O)N1CCC(C)[C@H]1C(=O)N1CCC[C@H]1C(=O)N1CCC[C@H]1C(=O)N[C@@H](CCCN=C(N)N)C(=O)N[C@@H](CCCN=C(N)N)C(=O)N[C@@H](CCCN=C(N)N)C(=O)O` (stereo partly drawn) (H-VPPP[X1]PPRRR-OH), the Kd is 11.6 µM.

Regarding `CC(C)[C@H](N)C(=O)N1CCC[C@H]1C(=O)N1CCC[C@H]1C(=O)N1CCC[C@H]1C(=O)N1CCC(C[S+](C)[O-])[C@H]1C(=O)N1CCC[C@H]1C(=O)N1CCC[C@H]1C(=O)N[C@@H](CCCNC(=N)N)C(=O)N[C@@H](CCCNC(=N)N)C(=O)N[C@@H](CCCNC(=N)N)C(=O)O` (stereo partly drawn) (H-VPPP[X3]PPRRR-OH), the outcome was inactive.

On to `CC(C)C1CCN(C(=O)[C@@H]2CCCN2C(=O)[C@@H]2CCCN2C(=O)[C@@H]2CCCN2C(=O)[C@@H](N)C(C)C)[C@@H]1C(=O)N1CCC[C@H]1C(=O)N1CCC[C@H]1C(=O)N[C@@H](CCCNC(=N)N)C(=O)N[C@@H](CCCNC(=N)N)C(=O)N[C@@H](CCCNC(=N)N)C(=O)O` (stereo partly drawn) (H-VPPP[X6]PPRRR-OH), for which the result was inactive.

For `CC(C)[C@H](N)C(=O)N1CCC[C@H]1C(=O)N1CCC[C@H]1C(=O)N1CCC[C@H]1C(=O)N1CCC(CO)[C@H]1C(=O)N1CCC[C@H]1C(=O)N1CCC[C@H]1C(=O)N[C@@H](CCCNC(=N)N)C(=O)N[C@@H](CCCNC(=N)N)C(=O)N[C@@H](CCCNC(=N)N)C(=O)O` (stereo partly drawn) (H-VPPP[X5]PPRRR-OH), the outcome was inactive.

With `CC(C)[C@H](N)C(=O)N1CCC[C@H]1C(=O)N1CCC[C@H]1C(=O)N1CCC[C@H]1C(=O)N1CCC(CS(=O)(=O)c2ccccc2)[C@H]1C(=O)N1CCC[C@H]1C(=O)N1CCC[C@H]1C(=O)N[C@@H](CCCNC(=N)N)C(=O)N[C@@H](CCCNC(=N)N)C(=O)N[C@@H](CCCNC(=N)N)C(=O)O` (stereo partly drawn) (H-VPPP[X4]PPRRR-OH), the outcome was inactive.

Turning to H-VPPPPPPRRR-OH, the result was inactive.

Regarding `CC(C)[C@H](N)C(=O)N1CCC[C@H]1C(=O)N1CCC[C@H]1C(=O)N1CCC[C@H]1C(=O)N1CCC(CC(=O)O)[C@H]1C(=O)N1CCC[C@H]1C(=O)N1CCC[C@H]1C(=O)N[C@@H](CCCNC(=N)N)C(=O)N[C@@H](CCCNC(=N)N)C(=O)N[C@@H](CCCNC(=N)N)C(=O)O` (stereo partly drawn) (H-VPPP[X2]PPRRR-OH), the outcome was inactive.
